The source of these data is patent US20130237530A1, “BENZODIAZEPINE DERIVATIVES, COMPOSITIONS AND METHODS FOR TREATING COGNITIVE IMPAIRMENT” (priority 2010, published 2013).

“Also recorded” adds a separate entry of the source. Like-named read-outs stand apart in the source and are kept apart here.

Data set [1] has as its system aged-impaired (AI) rats. Briefly: Radial Arm Maze (RAM) behavioral task, spatial memory retention. The class given is in vivo, rat. The procedure: The effects of methyl 3,5-diphenylpyridazine-4-carboxylate on the in vivo spatial memory retention of aged-impaired (AI) rats were assessed in a Radial Arm Maze (RAM) behavioral task using vehicle control and four different dosage levels of methyl 3,5-diphenylpyridazine-4-carboxylate ([…]). RAM behavioral tasks were performed on eight AI rats. All five treatment conditions (vehicle and four dosage levels) were tested on all eight rats.
The RAM apparatus used consisted of eight equidistantly-spaced arms. An elevated maze arm (7 cm width×75 cm length) projected from each facet of an octagonal center platform (30 cm diameter, 51.5 cm height). Clear side walls on the arms were 10 cm high and were angled at 65° to form a trough. A food well (4 cm diameter, 2 cm deep) was located at the distal end of each arm. Froot Loops™ (Kellogg Company) were used as rewards. Blocks constructed of Plexiglas™ (30 cm height×12 cm width) could be positioned to prevent entry to any arm. Numerous extra maze cues surrounding the apparatus were also provided.
The AI rats were initially subjected to a pre-training test (Chappell et al. Neuropharmacology 37: 481-487, 1998). The pre-training test consisted of a habituation phase (4 days), a training phase on the standard win-shift task (18 days) and another training phase (14 days) in which a brief delay was imposed between presentation of a subset of arms designated by the experimenter (e.g., 5 arms available and 3 arms blocked) and completion of the eight-arm win-shift task (i.e., with all eight arms available).
In the habituation phase, rats were familiarized to the maze for an 8-minute session on four consecutive days. In each of these sessions, food rewards were scattered on the RAM, initially on the center platform and arms and then progressively confined to the arms. After this habituation phase, a standard training protocol was used, in which a food pellet was located at the end of each arm. Rats received one trial each day for 18 days. Each daily trial terminated when all eight food pellets had been obtained or when either 16 choices were made or 15 minutes had elapsed. After completion of this training phase, a second training phase was carried out in which the memory demand was increased by imposing a brief delay during the trial. At the beginning of each trial, three arms of the eight-arm maze were blocked. Rats were allowed to obtain food on the five arms to which access was permitted during this initial “information phase” of the trial. Rats were then removed from the maze for 60 seconds, during which time the barriers on the maze were removed, thus allowing access to all eight arms. Rats were then placed back onto the center platform and allowed to obtain the remaining food rewards during this “retention test” phase of the trial. […]

Data set [2] deals with T1, GABAA α5 receptor (Rattus norvegicus, UniProt P18508+P19969).
T1 construct: from tissue; host or cells: rat brain in vivo; hippocampus compared with cerebellum
Briefly: in vivo. It counts as in vivo, Long Evans rats. The settings on record: for effect on Ro 15-4513 binding in hippocampus: 0.01-10 mg/kg; for dose dependence of GABAA α5 receptor occupancy: administered intravenously. The text has this:
(§1) Food and water were available ad libitum.

Data set [3] deals with GABAA α5 receptor. The experiment in a line: in vivo. As to conditions: i.v.; for effect on Ro 15-4513 binding/levels in cerebellum: 0.01-10 mg/kg. The class given is in vivo, Long Evans rats.
Source text: as §1

Data set [4] in a line: in vivo. The class given is in vivo, Long Evans rats. The settings on record: for concentration at 35 min: male, young Long Evans rats. The procedure:
as §1
For plasma exposures, blood samples were centrifuged at 14000 rpm for 16 minutes. After centrifuging, 50 ul of supernatant (plasma) from each sample was added to 200 μl of acetonitrile plus 0.1% formic acid. […] Samples were sonicated for 5 minutes in an ultrasonic water bath, followed by centrifugation for 30 minutes, at 16000 RPM. 100 ul of supernatant was removed from each sample vial and placed in a new glass auto sample vial, followed by the addition of 300 μl of sterile water (pH 6.5).
Additional studies were conducted in aged Long-Evans rats in order to determine the exposures at the behaviorally relevant doses in the cognition studies. Exposure in young Long-Evans rats was also determined to bridge with the receptor occupancy studies that were conducted in young Long-Evans rats. Exposures in young and aged Long-Evans rats were relatively similar (Table 3, FIG. 4).

In data set [5] the target is α5-containing GABAA R (Homo sapiens, UniProt P18507+P31644). The settings on record: (EC20); van Niel et al. J. Med. Chem. 2005; cited from earlier work.
In data set [6] the target is T2, GABAA receptors (α5β3γ2) (Homo sapiens, UniProt P18507+P28472+P31644).
T2 construct: myc-His (from vector pcDNA3.1 myc-His); expressed in transfected cells; host or cells: Xenopus laevis oocytes injected with cDNAs in pcDNA3.1 / pcDNA3.1 myc-His
Briefly: Potentiation of GABA EC50 current, two-electrode voltage clamp (TEVC) in Xenopus oocytes expressing GABAA α5β3γ2. The class given is cell-based. As to conditions: read-out: GABA α5 EC50 % potentiation. The method, then:
The agonist activity of the compounds of this invention was determined by measuring their effect on GABA-gated Cl— current from Xenopus oocytes expressing GABAA α5β3γ2 subtype receptor in a two-electrode voltage clamp (TEVC) setup.
In this study, the GABA-gated Cl^− current from oocytes expressing GABAAR α5β3γ2 subtype was measured in the TEVC setup in the presence of the test compounds. […] Upon conclusion of compound testing and successful washout, a 1.0 μM diazepam was tested and used for comparative activity on the two GABAAR subtypes.
Other concentrations of the test compound may also be tested following the same protocol.
Results are expressed as mean±SEM.
A general note: In two-electrode clamp one electrode senses voltage and the other passes current.

The test system of data set [7] is aged-impaired (AI) rats. Briefly: Morris water maze behavioral task, ICV infusion. As to conditions: 100 μg ICV. It counts as in vivo, rat. The method, then:
The effects of 6,6 dimethyl-3-(3-hydroxypropyl)thio-1-(thiazol-2-yl)-6,7-dihydro-2-benzothiophen-4(5H)-one on the in vivo spatial memory retention of aged-impaired (AI) rats were assessed in a Morris water maze behavioral task. A water maze is a pool surrounded with a novel set of patterns relative to the maze.
Cognitively impaired aged rats were implanted unilaterally with a cannula into the lateral ventricle. Stereotaxic coordinates were 1.0 mm posterior to bregma, 1.5 mm lateral to midline, and 3.5 mm ventral to the skull surface. After about a week of recovery, the rats were pre-trained in a water maze for 2 days (6 trials per day) to locate a submerged escape platform hidden underneath the surface of the pool, in which the escape platform location varied from day to day. No intracerebroventricular (ICV) infusion was given during pre-training
After pre-training, rats received ICV infusion of either 100 μg 6,6 dimethyl-3-(3-hydroxypropyl)thio-1-(thiazol-2-yl)-6,7-dihydro-2-benzothiophen-4(5H)-one (n=6) in 5 μl DMSO or vehicle DMSO (n=5) 40 min prior to water maze training and testing. Training consisted of 8 trials per day for 2 days where the hidden escape platform remained in the same location. Rats were given 60 seconds to locate the platform with a 60 seconds inter-trial interval. The rats were given a probe test (120 seconds) 24 hr after the end of training where the escape platform was removed. During the training, there were 4 blocks, where each block had 4 training trials.
During a test trial 24 hr after training, the escape platform was removed. The search/swim pattern of the rats was used to measure whether the rats remember where the escape platform was located during pre-trial training in order to test for the long-term memory of the rats. In this trial, “target annulus” is a designated area 1.5 times the size of the escape platform around the area where the platform was located during pre-trial training “Opposite annulus” is a control area of the same size as the size of the target annulus, which is located opposite to the target annulus in the pool. If the rats had good long term memory, they would tend to search in the area surrounding the location where the platform was during the pre-trial training (i.e., the “target” annulus; and not the “opposite” annulus). “Time in annulus” is the amount of time in seconds that the rat spent in the target or opposite annulus area. “Number (#) of crossings” in annulus is the number of times the rat swam across the target or opposite annulus area.

A short description of data set [8]: in vivo. The class given is in vivo, Long Evans rats. As to conditions: male, Long Evans, rat, iv, tracer 1 μg/kg, i.v., after vehicle administration.
Source text: as §1

Where [9] appears, read: dose increase from 1 to 10 mg/kg, i.v.
[10] abbreviates: probe test 24 hr after training.

T2 sequence (P31644 32-462): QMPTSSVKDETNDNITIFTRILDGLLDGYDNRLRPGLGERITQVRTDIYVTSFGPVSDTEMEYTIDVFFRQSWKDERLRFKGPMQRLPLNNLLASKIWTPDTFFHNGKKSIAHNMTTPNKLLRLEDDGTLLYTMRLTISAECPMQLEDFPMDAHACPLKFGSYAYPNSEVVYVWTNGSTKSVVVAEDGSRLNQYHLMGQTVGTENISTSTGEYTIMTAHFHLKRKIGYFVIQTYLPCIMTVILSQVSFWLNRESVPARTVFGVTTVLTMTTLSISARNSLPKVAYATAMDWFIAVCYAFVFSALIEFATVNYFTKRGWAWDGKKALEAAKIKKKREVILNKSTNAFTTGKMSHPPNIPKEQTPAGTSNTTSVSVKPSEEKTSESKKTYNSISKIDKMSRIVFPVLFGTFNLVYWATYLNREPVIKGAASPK
T2 sequence (P28472 26-473): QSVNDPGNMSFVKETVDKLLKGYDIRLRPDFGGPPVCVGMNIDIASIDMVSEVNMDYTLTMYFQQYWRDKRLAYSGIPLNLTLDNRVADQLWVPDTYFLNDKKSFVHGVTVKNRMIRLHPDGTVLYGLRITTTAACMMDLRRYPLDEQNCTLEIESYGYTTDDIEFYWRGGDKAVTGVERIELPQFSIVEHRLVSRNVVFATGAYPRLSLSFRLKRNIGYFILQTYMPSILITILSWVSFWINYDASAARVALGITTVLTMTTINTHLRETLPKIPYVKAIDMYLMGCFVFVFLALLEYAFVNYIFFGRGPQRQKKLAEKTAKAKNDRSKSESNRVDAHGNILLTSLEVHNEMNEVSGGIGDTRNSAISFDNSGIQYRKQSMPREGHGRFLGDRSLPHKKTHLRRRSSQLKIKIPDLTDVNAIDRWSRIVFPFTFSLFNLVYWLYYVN
T2 sequence (P18507 40-475): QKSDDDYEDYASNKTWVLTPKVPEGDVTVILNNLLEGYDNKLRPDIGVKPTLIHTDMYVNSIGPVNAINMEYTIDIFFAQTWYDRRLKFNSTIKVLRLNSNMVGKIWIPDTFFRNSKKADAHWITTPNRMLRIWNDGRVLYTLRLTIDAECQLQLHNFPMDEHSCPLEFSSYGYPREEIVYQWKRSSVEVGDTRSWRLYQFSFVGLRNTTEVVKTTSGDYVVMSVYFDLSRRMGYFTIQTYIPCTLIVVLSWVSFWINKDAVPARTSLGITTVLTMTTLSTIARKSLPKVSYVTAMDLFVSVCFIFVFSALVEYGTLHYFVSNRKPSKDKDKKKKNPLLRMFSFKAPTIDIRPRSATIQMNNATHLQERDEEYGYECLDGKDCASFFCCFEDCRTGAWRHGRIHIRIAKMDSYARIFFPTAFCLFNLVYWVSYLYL
T1 sequence (P19969 32-464 limits assumed): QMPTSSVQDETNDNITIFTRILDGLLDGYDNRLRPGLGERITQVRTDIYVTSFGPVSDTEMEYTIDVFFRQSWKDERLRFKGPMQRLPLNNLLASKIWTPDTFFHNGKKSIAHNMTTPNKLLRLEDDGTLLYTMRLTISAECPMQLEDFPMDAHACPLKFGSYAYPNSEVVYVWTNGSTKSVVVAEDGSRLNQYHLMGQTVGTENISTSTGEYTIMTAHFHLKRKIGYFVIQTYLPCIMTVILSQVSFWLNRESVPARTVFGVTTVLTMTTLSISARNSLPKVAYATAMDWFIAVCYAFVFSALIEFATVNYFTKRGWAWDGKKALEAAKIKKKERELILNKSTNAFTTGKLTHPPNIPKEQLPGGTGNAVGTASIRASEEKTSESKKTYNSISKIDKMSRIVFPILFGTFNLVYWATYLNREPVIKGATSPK
T1 sequence (P18508 39-466): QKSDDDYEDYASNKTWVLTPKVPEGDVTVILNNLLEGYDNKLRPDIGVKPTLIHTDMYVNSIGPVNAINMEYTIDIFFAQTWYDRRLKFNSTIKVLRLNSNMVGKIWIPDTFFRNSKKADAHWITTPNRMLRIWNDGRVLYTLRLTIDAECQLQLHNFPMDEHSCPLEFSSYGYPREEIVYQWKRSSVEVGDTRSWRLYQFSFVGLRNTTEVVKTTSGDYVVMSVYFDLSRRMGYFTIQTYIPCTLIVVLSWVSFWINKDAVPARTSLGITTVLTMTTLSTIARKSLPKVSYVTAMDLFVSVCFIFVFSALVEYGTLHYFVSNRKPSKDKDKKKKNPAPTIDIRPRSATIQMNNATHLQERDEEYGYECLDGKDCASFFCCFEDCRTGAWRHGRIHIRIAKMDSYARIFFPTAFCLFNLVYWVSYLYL
α5-containing GABAA R, sequence (P31644 32-462): as the sequence (P31644 32-462) above
α5-containing GABAA R, sequence (P28472 26-473 partner): as the sequence (P28472 26-473) above
α5-containing GABAA R, sequence (P18507 40-475): as the sequence (P18507 40-475) above

For `COC(=O)c1c(-c2ccccc2)cnnc1-c1ccccc1` [methyl 3,5-diphenylpyridazine-4-carboxylate], the “average no. of errors ± SEM in retention test” value in data set [1] (3 mg/kg i.p., two-hour delay RAM, AI rats) came to 1.31±0.40. Also, in data set [1] (3 mg/kg i.p., two-hour delay RAM, t(7)=4.233, p=0.004), the “memory performance relative to vehicle control” value is “significantly improved memory performance”. Further, in data set [2] (i.v.), the “effect on Ro 15-4513 binding in hippocampus” value is “blocked the binding of Ro154513 in the hippocampus; also recorded: dose-dependently reduced Ro 15-4513 binding in hippocampus”. The “dose dependence of GABAA α5 receptor occupancy” value in data set [2] was “dose-dependent increase”. In data set [3], the “effect on Ro 15-4513 binding/levels in cerebellum” value is on record as “did not affect binding of Ro15413 in the cerebellum; also recorded: without affecting cerebellum levels of Ro 15-4513”. The Kp in data set [4] (Long Evans, rat, in vivo, read-out: brain/plasma ratios) was more than 1. The “increase in hippocampal exposure” value is 12 fold in data set [4] (dose increase from 0.1 to 1 mg/kg, i.v.) and approximately 5 fold in data set [4] (setting [9]). The “increase in plasma exposure” value in data set [4] (setting [9]) turned out to be 12 fold. For the same compound, the concentration at 35 min in data set [4] (Long Evans, rat, in vivo, 0.1 mg/kg, i.v., read-out: Hippocampus exposure (SEM)) was determined as 14.6 ng/g; in data set [4] (Long Evans, rat, in vivo, 1 mg/kg, i.v., read-out: Hippocampus exposure (SEM)), 180 ng/g; in data set [4] (Long Evans, rat, in vivo, 1 mg/kg, i.v., read-out: Plasma exposure (SEM)) it was 62.8 ng/mL; in data set [4] (Long Evans, rat, in vivo, 10 mg/kg, i.v., read-out: Hippocampus exposure (SEM)) it was 947 ng/g; in data set [4] (Long Evans, rat, in vivo, 10 mg/kg, i.v., read-out: Plasma exposure (SEM)) it was 764 ng/mL. Moreover, the “α5 in vitro efficacy” value in data set [5] is recorded as “+27”.

As for `CCOC(=O)c1ncn2c1Cn1nnc(C)c1-c1cc(Cl)ccc1-2` [Compound 9], in data set [6], the activation at 1 µM is 8.3%.

As to `CCc1nnn2c1-c1cc(OC)ccc1-n1cnc(C(=O)N(CC)CC)c1C2` [Compound 7], the activation at 1 µM in data set [6] was found to be 11.1%.

`CC1(C)CC(=O)c2c(SCCCO)sc(-c3nccs3)c2C1` [6,6 dimethyl-3-(3-hydroxypropyl)thio-1-(thiazol-2-yl)-6,7-dihydro-2-benzothiophen-4(5H)-one]: in data set [7], the “learning of the water maze task” value is given as “improved the learning of the water maze task” and the “long-term memory in the water maze task” value is “improved the long-term memory”. Moreover, the “time to find the escape platform (escape latency)” value in data set [7] (beginning of training (block 1)) was “about 24 seconds”. Also, the “time to find the escape platform (escape latency)” value in data set [7] (end of training (block 4)) is on record as “about 9.6 seconds”. In addition, in data set [7] (setting [10]), the “number of crossings of target annulus vs opposite annulus” value was “crossed the “target annulus” more often” and the “time in target annulus vs opposite annulus” value was “spent significantly more time in the target annulus”.

As for `CCOC(=O)c1ncn2c1Cn1c(C)nnc1-c1cc(OC)ccc1-2` [ethyl 3-methoxy-7-methyl-9H-benzo[f]imidazo[1,5-a][1,2,4]triazolo[4,3-d][1,4]diazepine-10-carboxylate], the “memory performance relative to vehicle control” value in data set [1] (3 mg/kg, four-hour delay RAM, t(7)=4.13, p=0.004, or t(7)=3.08, p=0.018) was “significantly improved memory performance”; in data set [1] (10 mg/kg, four-hour delay RAM, t(7)=2.82, p=0.026), “significantly improved memory performance”. Moreover, the “effect on Ro 15-4513 binding in hippocampus” value in data set [2] (i.v.) is on record as “blocked the binding of Ro154513 in the hippocampus; also recorded: reduced Ro 15-4513 binding in hippocampus”. The “GABAA α5 receptor occupancy” value in data set [2] (10 mg/kg, i.v.) is listed as more than 90%. For the same compound, in data set [2], the “dose dependence of GABAA α5 receptor occupancy” value is listed as “dose-dependent”. Also, the “effect on Ro 15-4513 binding/levels in cerebellum” value in data set [3] is “did not affect binding of Ro15413 in the cerebellum; also recorded: without affecting cerebellum levels of Ro 15-4513”.

As to `CCOC(=O)c1ncn2c1CN(C)C(=O)c1cc(N=[N+]=[N-])ccc1-2` [Ro 15-4513], the concentration at 20 min worked out at 0.36 ± 0.02 ng/g in data set [8] (cerebellum, read-out: levels of Ro 15-4513 in cerebellum) and 1.93 ± 0.05 ng/g in data set [8] (hippocampus, read-out: levels of Ro 15-4513 in hippocampus). In addition, in data set [3] (tracer 1 μg/kg, after vehicle administration), the “higher levels in hippocampus compared with cerebellum” value is more than 5 fold.

Turning to `CCN(CC)C(=O)c1ncn2c1Cn1nnc(C)c1-c1cc(OC)ccc1-2` [Compound 2], the activation at 10 µM in data set [6] stood at 6.2%.
